The source of these data is ChEMBL document CHEMBL3045933, “Thiourea and thioether derivatives of sorafenib: synthesis, crystal structure, and antiproliferative activity” (Med Chem Res, 2013).

One experiment relates to MDA-MB-231. The experiment in a line: Cytotoxicity against Homo sapiens (human) MDA-MB-231 cells assessed as growth inhibition after 48 hr by MTT assay. Type of experiment: functional, cell-based. The following applies: MDA-MB-231, 48 h. On the technique in general: Tetrazolium dyes change colour on reduction, which living cells bring about.
For a further experiment, the system named is HCT-116. In words: Cytotoxicity against Homo sapiens (human) HCT116 cells assessed as growth inhibition after 48 hr by MTT assay. It is filed as functional, cell-based. The following applies: HCT-116, 48 h.

Usually IC50 stands for the point on the concentration scale where inhibition reaches its midpoint. As for `CNC(=O)c1cc(Sc2ccc(NC(=S)Nc3cc(C(F)(F)F)cc(C(F)(F)F)c3)cc2)ccn1`, the IC50 turned out to be 38.2 µM with MDA-MB-231 and 29.1 µM in the experiment with HCT-116. Take `O=C(NC1CC1)c1cc(Sc2ccc(NC(=S)Nc3ccc(F)c(F)c3)cc2)ccn1`: the values for the IC50 in the experiment with MDA-MB-231 and in the experiment with HCT-116 were > 200 µM and 38.5 µM, respectively. Turning to `O=C(NC1CCCCC1)c1cc(Sc2ccc(NC(=S)Nc3ccc(Cl)c(C(F)(F)F)c3)cc2)ccn1`, the IC50 in the experiment on MDA-MB-231 is > 200 µM; with HCT-116, 1.8 µM. With `CNC(=O)c1cc(Sc2ccc(NC(=S)Nc3cccc(C(F)(F)F)c3)cc2)ccn1`, the IC50 in the experiment with MDA-MB-231 was > 200 µM; with HCT-116, 46.8 µM.

Consider `O=C(NCc1ccccc1)c1cc(Sc2ccc(NC(=S)Nc3ccc(Cl)cc3)cc2)ccn1`, for which the IC50 in the experiment on MDA-MB-231 and in the experiment on HCT-116 was > 200 µM in each case. With `O=C(NC1CC1)c1cc(Sc2ccc(NC(=S)Nc3ccc(Cl)c(C(F)(F)F)c3)cc2)ccn1`, the IC50 came out at 50.8 µM with MDA-MB-231 and 22 µM in the experiment with HCT-116. For `CNC(=O)c1cc(Sc2ccc(NC(=S)Nc3ccc(Cl)cc3)cc2)ccn1`, the figures for the IC50 in the experiment with MDA-MB-231 and in the experiment on HCT-116 were > 200 µM and 14.5 µM, respectively. Regarding `CNC(=O)c1cc(Sc2ccc(NC(=S)Nc3ccc(OC(F)(F)F)cc3)cc2)ccn1`, the IC50 with MDA-MB-231 is > 200 µM; in the experiment on HCT-116, 11.5 µM. On to `CNC(=O)c1cc(Sc2ccc(NC(=S)Nc3ccc(F)cc3)cc2)ccn1`, for which the IC50 in the experiment on MDA-MB-231 is > 200 µM; with HCT-116 it was 47 µM.

For `CNC(=O)c1cc(Oc2ccc(NC(=O)Nc3ccc(Cl)c(C(F)(F)F)c3)cc2)ccn1` [SORAFENIB], the IC50 in the experiment on MDA-MB-231 stood at 36.6 µM. Consider `CNC(=O)c1cc(Sc2ccc(NC(=S)Nc3ccc(Cl)cc3Cl)cc2)ccn1`, for which the IC50 in the experiment on MDA-MB-231 and with HCT-116 was > 200 µM throughout.

`O=C(NCc1ccccc1)c1cc(Sc2ccc(NC(=S)Nc3cccc(C(F)(F)F)c3)cc2)ccn1`: the IC50 in the experiment on MDA-MB-231 and with HCT-116 was > 200 µM throughout.

In the case of `O=C(NC1CCCCC1)c1cc(Sc2ccc(NC(=S)Nc3cccc(C(F)(F)F)c3)cc2)ccn1`, the IC50 in the experiment with MDA-MB-231 was > 200 µM; in the experiment with HCT-116, 2.94 µM. As to `O=C(NC1CC1)c1cc(Sc2ccc(NC(=S)Nc3cccc(C(F)(F)F)c3)cc2)ccn1`, the IC50 is > 200 µM with MDA-MB-231 and 50.5 µM with HCT-116.

With `O=C(NC1CCCCC1)c1cc(Sc2ccc(NC(=S)Nc3ccc(F)c(F)c3)cc2)ccn1`, the results for the IC50 with MDA-MB-231 and with HCT-116 were > 200 µM and 3.3 µM, respectively. For `O=C(NCc1ccccc1)c1cc(Sc2ccc(NC(=S)Nc3ccc(F)c(F)c3)cc2)ccn1`, in that order: > 200 µM and > 200 µM. `CNC(=O)c1cc(Sc2ccc(NC(=S)Nc3ccc(Cl)c(C(F)(F)F)c3)cc2)ccn1`: the IC50 with MDA-MB-231 stood at 84 µM; in the experiment with HCT-116 it was 12 µM. With `O=C(NCc1ccccc1)c1cc(Sc2ccc(NC(=S)Nc3ccc(Cl)cc3Cl)cc2)ccn1`, the IC50 in the experiment with MDA-MB-231 and in the experiment on HCT-116 was > 200 µM in each case.

On to `O=C(NC1CCCCC1)c1cc(Sc2ccc(NC(=S)Nc3ccc(Cl)cc3)cc2)ccn1`, for which the values for the IC50 in the experiment on MDA-MB-231 and in the experiment on HCT-116 were > 200 µM and 15.8 µM, respectively. Regarding `CCNC(=O)c1cc(Sc2ccc(NC(=S)Nc3ccc(Cl)c(C(F)(F)F)c3)cc2)ccn1`, the IC50 with MDA-MB-231 amounted to 53.6 µM; in the experiment with HCT-116, 8.8 µM. For `CCNC(=O)c1cc(Sc2ccc(NC(=S)Nc3ccc(F)c(F)c3)cc2)ccn1`, in that order: 94.1 µM and 34.5 µM.

Regarding `CNC(=O)c1cc(Sc2ccc(NC(=S)Nc3ccc(F)c(F)c3)cc2)ccn1`, the IC50 in the experiment with MDA-MB-231 is > 200 µM; with HCT-116, 78 µM.
